Source: US7414042B2, “Method and composition for selectively inhibiting melanoma” (The Board of Trustees of The University of Illinois, priority 1995, dated 2008)
≈ marks a conversion by molar mass, not a printed value.

Columns and labels:
MEL-2 (melanoma) = experiment: Cytotoxicity against cultured human melanoma cells (SRB); type: cell-based; conditions: for ED50 (Std. Dev.) MEL-2: derivatives, Tables 2-6
Experimental: (§1) The plates were incubated for three days. […] Dose response studies were performed to generate ED50 values.

[1] = test system: human melanoma and nonmelanoma cancer cell lines; experiment: Cytotoxicity profile across the panel of human cancer cell lines; conditions: Table 1 panel
Experimental: (§2) In the following Table 1, the extracted betulinic acid and the other pure compounds were tested for cycotoxity against the following cultured human cell lines: A431 (squamous cells), BC-1 (breast), COL-2 (colon), HT-1080 (sarcoma), KB (human oral epidermoid carcinoma), LNCaP (prostate), LU-1 (lung), MEL-2 (melanoma), U373 (glioma) and ZR-75-1 (breast).
(§3) Cytotoxicity of the crude extracts and purified compounds was determined in a number of cultured human cancer cell lines. The cells were cultured in appropriate media and under standard conditions. To maintain logarithmic growth, the media were changed 24 hours prior to cytotoxic assays. On the day of the assay, the cells were harvested by trypsinization, counted, diluted in media, and added to 96-well plates containing test compounds dissolved in DMSO; the final DMSO concentration was 0.05%.
(§4) The plates were incubated for three days. Following the incubation period, the cells were fixed and stained with sulforhodamine B (SRB) dye. The bound dye was liberated with Tris base, and the OD515 was measured on an ELISA reader. The growth of the betulinic acid-treated cells was determined by the OD515 values, and the growth was compared to the OD515 values of DMSO-treated control cells. Dose response studies were performed to generate ED50 values.
(§5) The biological evaluation of the derivatives focused on the activity against human melanoma cell lines. In particular, the following betulinic acid derivatives were prepared and tested for cytotoxicity profile against human melanoma cell lines and against a number of selected nonmelanoma cell lines.

ZR-75-1 (breast) = experiment: Cytotoxicity against cultured human cancer cells (SRB); type: cell-based; conditions: Homo sapiens, ZR-75-1, 72 h; three days incubation, SRB; read-out: ED50 ZR 75-1
Experimental: as §1

BC-1 (breast) = experiment: as above; type: cell-based; conditions: Homo sapiens, 72 h; three days incubation, SRB; read-out: ED50 BC-1
Experimental: as §1

LNCaP (prostate) = experiment: as above; type: cell-based; conditions: Homo sapiens, LNCaP, 72 h; three days incubation, SRB; read-out: ED50 LNCaP
Experimental: as §1

COL-2 (colon) = experiment: as above; type: cell-based; conditions: Homo sapiens, Col2, 72 h; three days incubation, SRB; read-out: ED50 COL-2
Experimental: as §1

HT-1080 (sarcoma) = experiment: as above; type: cell-based; conditions: Homo sapiens, HT-1080, 72 h, three days incubation, read-out: ED50 HT-1080
Experimental: as §1

LOX melanoma cell line = experiment: Cytotoxicity of betulinic acid derivatives; type: cell-based, human; conditions: Tables 2-6
Experimental: as §1

MEL-8 melanoma cell line = experiment: Cytotoxicity of betulinic acid derivatives; type: cell-based, human; conditions: Tables 2-6
Experimental: as §1

MEL-6 melanoma cell line = experiment: Cytotoxicity of betulinic acid derivatives; type: cell-based, human; conditions: Tables 2-6
Experimental: as §1

[2] = test system: MALE-3M melanoma cell line; experiment: Cytotoxicity of betulinic acid derivatives; type: cell-based, human; conditions: Tables 2-6
Experimental: as §1

[3] = test system: KB (human oral epidermoid carcinoma); experiment: Cytotoxicity against cultured human cancer cells (SRB); type: cell-based; conditions: derivatives, Tables 2-6
Experimental: as §1

[4] = test system: human melanoma and nonmelanoma cancer cell lines
Experimental: as §2, §3, §4, §5

SMILES | IC50 (MEL-2 (melanoma); Homo sapiens, MEL2, 72 h, three days incubation, SRB, Table 1 and text, read-out: ED50 MEL-2) | cytotoxic activity profile, cell-type selectivity [1] | IC50 (ZR-75-1 (breast)) | IC50 (BC-1 (breast)) | IC50 (LNCaP (prostate)) | IC50 (COL-2 (colon)) | IC50 (HT-1080 (sarcoma)) | ED50 (Std. Dev.) MEL-2 (MEL-2 (melanoma)) | ED50 (Std. Dev.) LOX (LOX melanoma cell line) | ED50 (Std. Dev.) MEL-8 (MEL-8 melanoma cell line) | ED50 (Std. Dev.) MEL-6 (MEL-6 melanoma cell line) | ED50 (Std. Dev.) MALE-3M [2] | ED50 (Std. Dev.) KB [3] | cytotoxicity and selectivity compared with betulinic acid or the corresponding analog [4]
CC[C@@]1(O)C(=O)OCc2c1cc1n(c2=O)Cc2cc3ccccc3nc2-1 [Camptothecin] | 0.02 µg/mL (≈ 0.0574 µM) | relatively intense, nonselective cytotoxic activity | 0.001 µg/mL (≈ 0.00287 µM) | 0.07 µg/mL (≈ 0.201 µM) | 0.006 µg/mL (≈ 0.0172 µM) | 0.005 µg/mL (≈ 0.0144 µM) | 0.01 µg/mL (≈ 0.0287 µM) | – | – | – | – | – | – | –
C=C(C)C1CCC2(C=O)CCC3(C)C(CCC4C5(C)CCC(=O)C(C)(C)C5CCC43C)C12 (stereo not shown) [Compound 1] | – | – | – | – | – | – | – | 7.4 (2.4) μg/mL | 18.5 µg/mL (≈ 42.2 µM) | 3.2 (1.2) μg/mL | >20 µg/mL | >20 μg/mL | 12.9 µg/mL (≈ 29.4 µM) | –
C=C(C)C1CCC2(C=NOC)CCC3(C)C(CCC4C5(C)CCC(=NOC)C(C)(C)C5CCC43C)C12 (stereo not shown) [Compound 3] | – | – | – | – | – | – | – | >20 µg/mL | >20 µg/mL | >20 µg/mL | >20 µg/mL | >20 μg/mL | 20 µg/mL (≈ 40.3 µM) | –
C=C(C)C1CCC2(C=NO)CCC3(C)C(CCC4C5(C)CCC(=NO)C(C)(C)C5CCC43C)C12 (stereo not shown) [Compound 4] | – | – | – | – | – | – | – | 2.2 (0.7) μg/mL | 4.1 µg/mL (≈ 8.75 µM) | 1.4 (0.6) μg/mL | 11.9 (2.7) μg/mL | 17.5 μg/mL | 3.3 µg/mL (≈ 7.04 µM) | improved the cytotoxicity profile, although selectivity was lost
CON=C1CCC2(C)C(CCC3(C)C2CCC2C4C(C(C)C)CCC4(C(=O)O)CCC23C)C1(C)C (stereo not shown) [Compound 5] | – | – | – | – | – | – | – | >20 µg/mL | – | >20 µg/mL | >20 µg/mL | >20 μg/mL | – | less active
CC(C)[C@@H]1CC[C@]2(C(=O)O)CC[C@]3(C)[C@H](CC[C@@H]4[C@@]5(C)CCC(=O)C(C)(C)[C@@H]5CC[C@]43C)[C@@H]12 [Compound 6, Dihydrobetulonic acid] | – | – | – | – | – | – | – | 0.7 (0.6) μg/mL | – | 0.9 (0.4) μg/mL | 10.8 (2.6) μg/mL | 20 μg/mL | – | comparable biological activity
CC(C)C1CCC2(C(=O)O)CCC3(C)C(CCC4C5(C)CCC(=NO)C(C)(C)C5CCC43C)C12 (stereo not shown) [Compound 7] | – | – | – | – | – | – | – | 2.2 (0.3) μg/mL | – | 1.6 (1.1) μg/mL | 13.1 (1.1) μg/mL | 13.9 μg/mL | – | comparable biological activity
C=C(C)[C@@H]1CC[C@]2(C(=O)O)CC[C@]3(C)[C@H](CC[C@@H]4[C@@]5(C)CCC(=O)C(C)(C)[C@@H]5CC[C@]43C)[C@@H]12 [Compound 8, Betulonic acid] | – | – | – | – | – | – | – | 0.9 (0.8) μg/mL | 6.9 µg/mL (≈ 15.2 µM) | 0.4 (0.1) μg/mL | 15.3 (3.4) μg/mL | 20 μg/mL | 2.5 µg/mL (≈ 5.5 µM) | decrease in selective cytotoxicity
CC(C)[C@@H]1CC[C@]2(C(=O)O)CC[C@]3(C)C(CCC4[C@@]5(C)CC[C@H](O)C(C)(C)C5CC[C@]43C)C12 (stereo partly shown) [Compound 11, Dihydrobetulinic acid] | – | – | – | – | – | – | – | 5.8 µg/mL (≈ 12.6 µM) | >20 µg/mL | – | – | – | >20 µg/mL | less active
